According to ChEMBL document CHEMBL3272241, “Synthesis and antiprotozoal activity of 2,5-bis(4-guanylphenyl)thiophenes and -pyrroles” (J Med Chem, 1977):
Calls of active or inactive are those of the source. No cut-off for these calls is given here.

Experiments:
Plasmodium berghei = test: Antimalarial activity against Plasmodium berghei infected in mouse; format: functional, organism-based
[1] = tested on: Trypanosoma brucei rhodesiense; test: Antitrypanosomal activity against Trypanosoma rhodesiense infected in mouse assessed as increase in survival time by 30 days at 80 mg/kg relative to control; format: functional
[2] = tested on: Trypanosoma brucei rhodesiense; test: Antitrypanosomal activity against Trypanosoma rhodesiense infected in mouse assessed as increase in survival time by 30 days at 10 mg/kg relative to control; format: functional
[3] = tested on: Trypanosoma brucei rhodesiense; test: Antitrypanosomal activity against Trypanosoma rhodesiense infected in mouse assessed as increase in survival time by 30 days at 20 mg/kg relative to control; format: functional
[4] = tested on: Trypanosoma brucei rhodesiense; test: Antitrypanosomal activity against Trypanosoma rhodesiense infected in mouse assessed as increase in survival time by 30 days at 160 mg/kg relative to control; format: functional
[5] = tested on: Trypanosoma brucei rhodesiense; test: Antitrypanosomal activity against Trypanosoma rhodesiense infected in mouse assessed as increase in survival time by 30 days at 40 mg/kg relative to control; format: functional
[6] = tested on: Trypanosoma brucei rhodesiense; test: Antitrypanosomal activity against Trypanosoma rhodesiense infected in mouse assessed as increase in survival time by 30 days at 640 mg/kg relative to control; format: functional
[7] = tested on: Trypanosoma brucei rhodesiense; test: Antitrypanosomal activity against Trypanosoma rhodesiense infected in mouse assessed as increase in survival time by 30 days at 320 mg/kg relative to control; format: functional
[8] = tested on: Trypanosoma brucei rhodesiense; test: Antitrypanosomal activity against Trypanosoma rhodesiense infected in mouse assessed as increase in survival time by 30 days at 2.5 mg/kg relative to control; format: functional
[9] = tested on: Trypanosoma brucei rhodesiense; test: Antitrypanosomal activity against Trypanosoma rhodesiense infected in mouse assessed as increase in survival time by 30 days at 5 mg/kg relative to control; format: functional
[10] = tested on: Trypanosoma brucei rhodesiense; test: Antitrypanosomal activity against Trypanosoma rhodesiense infected in mouse assessed as increase in mean survival time at 160 mg/kg relative to control; format: functional
Mus musculus [11] = test: Acute toxicity in mouse infected with Trypanosoma rhodesiense assessed as death at 640 mg/kg; format: organism-based; set-up: dose 640 mg/kg; conditions: in vivo
Mus musculus [12] = test: Acute toxicity in mouse infected with Trypanosoma rhodesiense assessed as death at 320 mg/kg; format: organism-based; set-up: dose 320 mg/kg; conditions: in vivo
[13] = tested on: Trypanosoma brucei rhodesiense; test: Antitrypanosomal activity against Trypanosoma rhodesiense infected in mouse assessed as increase in mean survival time at 80 mg/kg relative to control; format: functional
[14] = tested on: Trypanosoma brucei rhodesiense; test: Antitrypanosomal activity against Trypanosoma rhodesiense infected in mouse assessed as increase in mean survival time at 40 mg/kg relative to control; format: functional
[15] = tested on: Trypanosoma brucei rhodesiense; test: Antitrypanosomal activity against Trypanosoma rhodesiense infected in mouse assessed as increase in mean survival time at 20 mg/kg relative to control; format: functional

Row | SMILES | Activity (Plasmodium berghei) | MST [1] | MST [2] | MST [3] | MST [4] | MST [5] | MST [6] | MST [7] | MST [8] | MST [9] | MST [10] | Activity (Mus musculus [11]) | Activity (Mus musculus [12]) | MST [13] | MST [14] | MST [15]
1 | Cn1c(-c2ccc([C+]3NCCN3)cc2)ccc1-c1ccc([C+]2NCCN2)cc1.[Cl-].[Cl-] | inactive | 4 days | 2 days | 3 days | 5 days | 4 days | – | – | – | – | – | – | – | – | – | –
2 | N=C(N)c1ccc(OCCCCCOc2ccc(C(=N)N)cc2)cc1 [PENTAMIDINE] | – | 5 days | 5 days | 5 days | 5 days | 5 days | 5 days | 5 days | 4 days | 5 days | – | – | – | – | – | –
3 | [Cl-].[Cl-].c1cc([C+]2NCCN2)ccc1-c1ccc(-c2ccc([C+]3NCCN3)cc2)s1 | inactive | – | – | – | – | – | 3 days | 2 days | – | – | 1.6 days | – | – | – | – | –
4 | CC1CN[C+](c2ccc(-c3ccc(-c4ccc([C+]5NCC(C)N5)cc4)n3C)cc2)N1.[Cl-].[Cl-] (stereo not drawn) | inactive | 5 days | – | 3 days | 5 days | 4 days | 5 days | 5 days | – | – | – | – | – | – | – | –
5 | N=C(N)c1ccc(/C=C/c2ccc(C(=N)N)cc2O)cc1 [HYDROXYSTILBAMIDINE] | – | 5 days | 5 days | 5 days | 5 days | 5 days | 5 days | 5 days | 5 days | 5 days | – | – | – | – | – | –
6 | [Cl-].[Cl-].c1cc([C+]2NCCCN2)ccc1-c1ccc(-c2ccc([C+]3NCCCN3)cc2)s1 | inactive | 4 days | 2 days | 3 days | 4 days | 4 days | 5 days | 5 days | – | – | – | – | – | – | – | –
7 | Cn1c(-c2ccc([C+](N)N)cc2)ccc1-c1ccc([C+](N)N)cc1.[Cl-].[Cl-] | inactive | 5 days | 5 days | 5 days | 5 days | 5 days | – | 5 days | 2 days | 4 days | – | – | – | – | – | –
8 | Cl.Cl.N=C(N)c1ccc(-c2ccc(-c3ccc(C(=N)N)cc3)s2)cc1 | inactive | 5 days | 5 days | 5 days | 5 days | 5 days | – | – | 3 days | 4 days | – | – | – | – | – | –
9 | N=C(N)c1ccc(/C=C/c2ccc(C(=N)N)cc2)cc1 [STILBAMIDINE] | – | 5 days | 5 days | 5 days | 5 days | 5 days | 5 days | 5 days | 5 days | 5 days | – | – | – | – | – | –
10 | Cn1c(-c2ccc([C+]3NCCCN3)cc2)ccc1-c1ccc([C+]2NCCCN2)cc1.[Cl-].[Cl-] | inactive | 5 days | 2 days | 3 days | 3 days | 5 days | – | – | – | – | – | Toxic | Toxic | – | – | –
11 | CC1CN[C+](c2ccc(-c3ccc(-c4ccc([C+]5NCC(C)N5)cc4)s3)cc2)N1.[Cl-].[Cl-] (stereo not drawn) | inactive | – | – | – | 2 days | – | 4 days | 4 days | – | – | – | – | – | 3 days | 1.2 days | 1 days
12 | N=C(N)c1ccc(-c2ccc(-c3ccc(C(=N)N)cc3)o2)cc1 [FURAMIDINE] | – | 5 days | 5 days | 5 days | 5 days | 5 days | 5 days | 5 days | 4 days | 5 days | – | – | – | – | – | –
